Here are results for seven molecules from paper PMC12737277, “Ecotoxicity of Nitrated Monoaromatic Hydrocarbons in Aquatic Systems: Emerging Risks from Atmospheric Deposition of Biomass Burning and Anthropogenic Aerosols” (Toxics, 2025).

Read-outs that look alike come from different tables or passages of the source. Bounds are passed on as bounds.

Assay [1] deals with T1, Oct1 (Danio rerio, UniProt A0A8N1Z2B5).
T1 construct: gene slc22a2; full-length transporter stably expressed in Flp-In-293 cells (Flp-In-293-drOct1)
T1 sequence (A0A8N1Z2B5 1-562): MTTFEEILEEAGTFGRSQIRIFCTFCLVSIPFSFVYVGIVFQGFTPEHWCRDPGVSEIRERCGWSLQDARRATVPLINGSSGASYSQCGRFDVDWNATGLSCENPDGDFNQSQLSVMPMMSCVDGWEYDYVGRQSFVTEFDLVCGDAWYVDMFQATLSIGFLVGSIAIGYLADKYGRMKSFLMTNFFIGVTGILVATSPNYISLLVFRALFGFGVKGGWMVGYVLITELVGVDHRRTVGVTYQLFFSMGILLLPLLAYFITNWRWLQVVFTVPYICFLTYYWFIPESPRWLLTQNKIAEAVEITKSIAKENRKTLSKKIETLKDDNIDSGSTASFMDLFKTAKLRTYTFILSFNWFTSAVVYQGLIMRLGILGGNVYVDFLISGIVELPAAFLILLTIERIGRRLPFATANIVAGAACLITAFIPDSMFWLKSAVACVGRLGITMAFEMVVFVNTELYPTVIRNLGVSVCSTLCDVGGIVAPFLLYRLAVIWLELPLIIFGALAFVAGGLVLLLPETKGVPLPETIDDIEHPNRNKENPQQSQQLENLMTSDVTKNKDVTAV
Nature of the assay: inhibition of ASP+ uptake in transfected cells, fluorescence. Type of assay: cell-based. Conditions: 0.5 µM ASP+, mock cells subtracted.

Assay [2] deals with T2, Oatp1d1 (Danio rerio, UniProt A0A8M9PU70).
T2 construct: gene slco1d1; full-length transporter stably expressed in Flp-In-293 cells (Flp-In-293-drOatp1d1)
T2 sequence (A0A8M9PU70 1-689): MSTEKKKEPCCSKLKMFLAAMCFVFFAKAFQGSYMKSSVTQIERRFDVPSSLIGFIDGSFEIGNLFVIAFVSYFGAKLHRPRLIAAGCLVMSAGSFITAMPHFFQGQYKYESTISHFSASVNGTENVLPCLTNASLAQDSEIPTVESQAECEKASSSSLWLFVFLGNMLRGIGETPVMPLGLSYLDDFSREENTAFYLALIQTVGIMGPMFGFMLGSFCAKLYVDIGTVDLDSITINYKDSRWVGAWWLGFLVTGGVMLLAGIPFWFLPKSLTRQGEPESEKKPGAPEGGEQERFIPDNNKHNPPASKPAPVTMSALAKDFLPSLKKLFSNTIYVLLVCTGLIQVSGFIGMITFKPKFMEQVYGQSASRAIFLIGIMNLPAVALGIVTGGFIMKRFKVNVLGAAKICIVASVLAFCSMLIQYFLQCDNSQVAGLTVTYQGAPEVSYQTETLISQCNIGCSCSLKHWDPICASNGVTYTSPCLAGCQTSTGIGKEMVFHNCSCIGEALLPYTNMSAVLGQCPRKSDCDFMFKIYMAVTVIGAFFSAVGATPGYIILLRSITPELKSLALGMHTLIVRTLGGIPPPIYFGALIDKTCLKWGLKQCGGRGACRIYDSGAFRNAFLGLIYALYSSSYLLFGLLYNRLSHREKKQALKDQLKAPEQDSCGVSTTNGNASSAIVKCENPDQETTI
Nature of the assay: inhibition of Lucifer yellow uptake in transfected cells, fluorescence. Type of assay: cell-based.

[3] abbreviates: 50 µM Lucifer yellow, mock cells subtracted.

Usually IC50 stands for the concentration at which inhibition is half-maximal. As for `Cc1c([N+](=O)[O-])ccc(O)c1O` [3M4NC], the IC50 entry in assay [1] was “particularly 3M5NC, 3M4NC, and 4NC, exhibited the strongest interactions with Oct1”; in assay [2] (setting [3]), “all compounds except 4NP showed interaction with LY uptake”. On to `O=[N+]([O-])c1ccc(O)c(O)c1` [4NC], for which the IC50 result in assay [1] is “particularly 3M5NC, 3M4NC, and 4NC, exhibited the strongest interactions with Oct1”; in assay [2] (setting [3]), “all compounds except 4NP showed interaction with LY uptake”. With `O=C(O)c1cc([N+](=O)[O-])ccc1O` [5NSA], the values for the IC50 in assay [1] (read-out: IC50 (converted)) and in assay [2] (read-out: IC50 (converted)) were 529 µM and 14.2 µM, respectively. Regarding `O=[N+]([O-])c1ccc(O)cc1` [4NP], the IC50 in assay [2] (read-out: IC50 (converted)) was > 719 µM.

`COc1cc([N+](=O)[O-])cc(OC)c1O` [4NS]: the IC50 result is listed as “All tested NMAHs interfered with ASP+ uptake via Oct1” in assay [1] and “all compounds except 4NP showed interaction with LY uptake” in assay [2] (setting [3]). Take `Cc1cc([N+](=O)[O-])cc(O)c1O` [3M5NC]: the IC50 result in assay [1] was “particularly 3M5NC, 3M4NC, and 4NC, exhibited the strongest interactions with Oct1”; in assay [2] (setting [3]), “all compounds except 4NP showed interaction with LY uptake”. In the case of `O=C(O)c1cccc([N+](=O)[O-])c1O` [3NSA], the IC50 in assay [1] (read-out: IC50 (converted)) is 496 µM; in assay [2] (setting [3]), “all compounds except 4NP showed interaction with LY uptake”.
